What was measured:
[1] = tested on: embyronic fibroblasts of mouse NIH-3T3; assay: Endocellular pHi of fibroblasts by microspectrofluorimetry (FDA, BCECF-AM); format: cell-based; conditions: for rise of pHi: fibroblasts in an attached spread state; for increase of pHi: 20 minutes
Protocol: The effect of the compounds according to the invention on the endocellular pH, embyronic fibroblasts of mouse NIH-3T3 supplied by the All-Russian Collection of Cellular Cultures of the Institute of Cytology of the Russian Academy of Sciences St. Petersburg was investigated. The cells were grown in the DMEM (Sigma) medium containing 2.2 g/l of sodium bicarbonate with addition of 80.0 mkg/ml of gentamicin and 10.0% embryonal veal serum at a temperature of 37° C. in an atmosphere containing 5.0% of carbon dioxide. For these experiments use was also made of a medium buffer with 5.0 mM of HEPES and 15.0 mM of sodium bicarbonate without serum or with addition of 5.0% serum. The cells were calculated with the help of a hemocytometer. A share of the dead cells was determined by colouring trypan blue.
The measurements of the endocellular pHi were carried out with the help of colorants FDA (Sigma) and BCECF-AM (Calbiochem) on a microspectrofluorimeter by a standard technique (Koshevoy Yu. V., Akatov V. S., Grobova M. E. Microspectrofluorimeter for measuring endocellular pH (micro pH)”. Devices and equipment for studies in the field of physical-and-chemical biology and biotechnology. Pushchino, 1990. P. 8-14).
The cells at a temperature of 37° C. were colored within 5 minutes with 5.0 mkM PDA that before the colouring was prepared from a 10.0 mM solution in acetone by dilution for 30 minutes in a phosphatic buffer to 0.1 mM or 2.0 mkM 1.0 mM solution BCECF-AM in DMSO.
The two-wave method of determining pHi was used based on the ratio intensities of fluorescence of the cells on two wavelengths (Akatov V. S. et all), “Endocellular pH and substrate dependence of proliferation of fibroblasts of Chinese hamster, Cytology, 1991, 33 (7), p. 86-94). The fluorescence was excited by light at λ=490 nm, the emission was recorded simultaneously with two photomultipliers on wavelengths λ=535 nm and λ=570 nm. The K-ratio of the fluorescence on two wavelengths was determined with a deduction of the background fluorescence of the medium near the investigated cells for 40-60 individual cells, which are then averaged taking into account the measurement error. A thermostatically controlled table was used that allowed measurements to be conducted at a temperature of 37° C. An account was taken for the photodynamic damage of the pigmented cells during-long-time continuous illumination by excited light. The readings were taken from a section of the preparation exposed to light for not more than 5 minutes.
The calibration curves for determining the absolute pHi values by magnitude K were constructed using the Thomas technique (Thomas J. A., Bushbaum R. N., Zimniak A. w Racker E. “Intracellular pH measurements in Ehrlich ascites tumor cells utilizing spectroscopic probe generated in situ”, Biochemistry, 1979, v. 18, p. 2210-2218), for which case the pigmented cells treated for 5-10 minutes with carboxyacidic nigericyn (Calbiochem) at a concentration of 5-10 mkg/ml was placed in a solution with a high content of potassium—130 mM KCl, 1.0 mM MgCl2, 20.0 mM of HEPES) and with pH values from 6.2 to 7.6. The K values were measured in the media with different pH assuming that pHi of the cells equals to the pH of the medium due to the action of nigericyn, which exchanges potassium ions for protons and at a high content of potassium in the medium counterbalances the pH of the medium and cells. Calibration curves were used based on the fluorescence of same medium with addition of 5.0 mkM of fluorescence or BCECF were used to the control the stability of the of the instrument readings.
The correctness of the technique was confirmed in the experiments on measurements of pH values of cells treated with protonofor monencine raising pH of the cells due to replacement of sodium ions by protons, and by determining the dependence of the change of pHi on the change of the pH of the medium. […]

[2] = Polarographic study of electrochemical reduction (electrochemical activity); format: physicochemical; conditions: for number of electrons participating in the reduction: calculated with the Geirovsky-Ilkovich equation; for i, mkA (polarographic wave current) / −E1/2, V (half-wave potential vs SCE): 37° C., forward trace, average for the group; for i, mkA (polarographic wave current): 9·10^−4 M; for half-wave potential more positive on reverse stroke than on forward stroke: reverse stroke vs forward stroke
Protocol: The study was carried out on a general-purpose polarograph PU-1 with a two-coordinate recorder of the “LKD” type using a three-electrode thermostatically controlled polarographic cell and mercury dripping electrode (MDE) with forced separation of the drop and a dropping period of 0.5 second. A platinum wire was used as an auxiliary electrode and a saturated calomel electrode (SCE) was used as a control electrode.
2.0% solutions of sodium chloride having pH 7.0, 7.2, 7.4, 7.6 were used as a background; the pH values of the background solution were corrected by a solution of sodium hydroxide. The polarographic cell was filled with 5.0 ml of the background solution and for 5 minutes was purged with nitrogen for removing the dissolved oxygen. Then 0.5 ml of solution of the studied substance was added to the background solution, and the polarogram was recorded as a polarographic wave. The concentration of the compounds in the polarographic cell was 9·10^−4 M.
The pH was measured on the pH-meter with an accuracy of ±0.05 pH units. The polarographic measurements were carried out at a temperature of 37° C. The recording of polarograms of the investigated materials was effected under conditions of DC current at a scanning rate of the potential 10.0 mV/s with a active scanning stroke from a potential 0 to −0.5 V and sweep retrace from a −0.5 V to 0. The electric-current sensitivity was 5.0 mkA. The scale by the coordinate of the potentials was 50.0 mV/cm. The values of potentials of the half-wave E1/2 of the investigated materials are given with respect to the SCE potential.
The polarogram parameters such as a limiting current ilim and E1/2 were determined by the graphic method. The number of electrons participating in the reaction was calculated on the basis of the analysis of the polarographic wave using the Geirovsky-Ilkovich equation.

[3] = medium with 10.0% blood serum, 0.02 mkg/ml, suspension
[4] = medium with 10.0% blood serum, 0.2 mkg/ml, suspension
[5] = medium with 10.0% blood serum, 2.0 mkg/ml, suspension
[6] = medium with 10.0% blood serum, 20.0 mkg/ml, suspension
[7] = medium without blood serum, 0.02 mkg/ml
[8] = medium without blood serum, 0.2 mkg/ml
[9] = medium without blood serum, 2.0 mkg/ml
[10] = medium without blood serum, 20.0 mkg/ml
[11] = medium without blood serum, 200 mkg/ml
[12] = medium without blood serum, 1000 mkg/ml

SMILES	rise of pHi ([1]; 2.0 mkg/ml)	rise of pHi ([1]; 20.0 mkg/ml)	increase of pHi [1, 3]	increase of pHi [1, 4]	increase of pHi [1, 5]	increase of pHi [1, 6]	increase of pHi [1, 7]	increase of pHi [1, 8]	increase of pHi [1, 9]	increase of pHi [1, 10]	increase of pHi [1, 11]	increase of pHi [1, 12]	number of electrons participating in the reduction [2]	i, mkA (polarographic wave current) ([2]; pH 7.0)	−E1/2, V (half-wave potential vs SCE) ([2]; pH 7.0)	i, mkA (polarographic wave current) ([2]; pH 7.2)	i, mkA (polarographic wave current) ([2]; pH 7.4)	−E1/2, V (half-wave potential vs SCE) ([2]; pH 7.4)	i, mkA (polarographic wave current) ([2]; pH 7.6)	−E1/2, V (half-wave potential vs SCE) ([2]; pH 7.6)	further results
O=c1[nH][nH]c(=O)c2ncccc12.[Na] [Compound 7, sodium salt of pyrido[2,3-d]-6H-pyridazine-5,8-dione]	0.10 unit pHi	0.07 unit pHi	do not initiate a change of pH	0.1 unit pH	0.12 unit pH	do not initiate a change of pH	no effect was found	no effect was found	0.08 unit pHi	0.08 unit pHi	no effect was found	no effect was found	3.72	0.26 ± 0.04 mkA	0.11 ± 0.02 V	0.31 ± 0.02 mkA	0.27 ± 0.03 mkA	0.105 ± 0.01 V	0.30 ± 0.01 mkA	0.105 ± 0.02 V	−E1/2, V (half-wave potential vs SCE) ([2]; pH 7.2): 0.11 ± 0.03 V; half-wave potential more positive on reverse stroke than on forward stroke [2]: 25.0 mV
O=C([O-])c1ccc2c(=O)[nH][nH]c(=O)c2c1.O=C([O-])c1ccc2c(=O)[nH][nH]c(=O)c2c1.[Na+].[Na+] [Compound 18, disodium salt of 6-carboxy-benzo[d]-3H-pyridazine-1,4-dione]	0.10 unit pHi	0.07 unit pHi	do not initiate a change of pH	0.1 unit pH	0.12 unit pH	do not initiate a change of pH	no effect was found	no effect was found	0.08 unit pHi	0.08 unit pHi	no effect was found	no effect was found	4.09	0.23 ± 0.03 mkA	0.092 ± 0.02 V	0.30 ± 0.01 mkA	0.29 ± 0.02 mkA	0.092 ± 0.02 V	0.31 ± 0.02 mkA	0.09 ± 0.01 V	−E1/2, V (half-wave potential vs SCE) ([2]; pH 7.2): 0.09 ± 0.01 V; half-wave potential more positive on reverse stroke than on forward stroke [2]: 30.0 mV
O=c1[nH][nH]c(=O)c2ncncc12.[Li] [Compound 35, lithium salt of pyrimido[4,5-d]-6H-pyridazine-5,8-dione]	0.10 unit pHi	0.07 unit pHi	do not initiate a change of pH	0.1 unit pH	0.12 unit pH	do not initiate a change of pH	no effect was found	no effect was found	0.08 unit pHi	0.08 unit pHi	no effect was found	no effect was found	3.5	0.30 ± 0.05 mkA	0.08 ± 0.02 V	0.26 ± 0.02 mkA	0.30 ± 0.03 mkA	0.085 ± 0.02 V	0.30 ± 0.02 mkA	0.09 ± 0.02 V	half-wave potential more positive on reverse stroke than on forward stroke [2]: 27.0 mV

Source: patent publication US20070166547A1, “Use of a layer consisting of hydrophobic linear, or two-dimensional polycyclic aromatics as a barrier layer or an encapsulation and electric components constructed with a layer of this type and comprising organic polymers” (priority 2003, published 2007)
